Laboratory results published in article PMC10771590, “Pathway crosstalk between the central metabolic and heme biosynthetic pathways in Phanerochaete chrysosporium” (Applied Microbiology and Biotechnology, 2024).

How the values were obtained:
[1] = molecular target: T1, recombinant PcGAPDH (rPcGAPDH) (Phanerodontia chrysosporium, UniProt Q01982); test: GAPDH assay and steady-state kinetic analysis; type: biochemical, Phanerochaete chrysosporium; conditions: 1 μM inhibitor, 5-min incubation, 0.6 mM GAP3 (Fig. 2C)
T1 construct: 6xHis-tag (pET-30) (cleaved yes); made in house; host or cells: E. coli BL21(DE3)pLysS
T1 sequence (Q01982 whole entry): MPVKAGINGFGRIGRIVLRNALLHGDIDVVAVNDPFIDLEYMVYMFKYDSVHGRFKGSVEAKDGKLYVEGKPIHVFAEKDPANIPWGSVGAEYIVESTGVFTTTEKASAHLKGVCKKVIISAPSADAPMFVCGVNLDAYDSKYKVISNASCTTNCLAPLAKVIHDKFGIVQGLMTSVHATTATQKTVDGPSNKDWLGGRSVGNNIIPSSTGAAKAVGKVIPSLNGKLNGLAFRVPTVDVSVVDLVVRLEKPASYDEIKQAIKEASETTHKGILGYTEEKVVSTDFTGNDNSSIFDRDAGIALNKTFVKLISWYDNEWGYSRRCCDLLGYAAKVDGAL
Procedure: GAPDH assay was performed as previously described (Campanale et al. [2003]). For steady-state kinetic analysis, the reaction mixture (1 ml) contained 40 mM phosphate (pH 7.6), 5.2 μg recombinant PcGAPDH (rPcGAPDH), 40 mM triethanolamine, 5 mM NAD^+, and 0.6–2 mM glyceraldehyde 3-phosphate (GAP3). Reactions were monitored by the increase in absorbance at 340 nm (ε 6220 M^–1 cm^–1) for 1 min, and initial velocities were determined. Inhibitory experiments were done in the presence of 0–2.5 μM hemin. To examine the effect of hemin on GAPDH kinetics, PcGAPDH was incubated with either buffer (control) or hemin for 5 min prior to initiating the reaction. Kinetic parameters were determined from Lineweaver–Burk plots, and Ki values were determined from the secondary plot of each slope of the Lineweaver–Burk plots. Immediately prior to use, hemin was dissolved at 10 mM in 0.1 M NaOH and diluted with 40 mM Tris–HCl (pH 7.5).
Fig. 2 Heterologous expression of PcGAPDH and inhibitory effect of hemin on GAPDH reaction. A M, molecular weight marker; lane 1, rPcGAPDH-His-tag; lane 2, His-tag-cleaved rPcGAPDH. B Reaction mixtures containing 2.5 nM rPcGAPDH, 40 mM phosphate (pH 7.6), 40 mM triethanolamine, 5 mM NAD^+, and 0.6–2 mM GAP3. […] Inset: secondary plots of each slope of Lineweaver–Burk plots against the concentration of hemin for determining inhibition constants. C Reaction mixtures containing 2.5 nM rPcGAPDH, 40 mM phosphate (pH 7.6), 40 mM triethanolamine, 5 mM NAD^+, and 0.6 mM GAP3. Reactions were started by adding substrates followed by 5-min incubation with either buffer or 1 μM inhibitor (hemin or protoporphyrin IX, PPIX). […] All experiments were performed in triplicate. Bars indicated as mean values ± standard deviation (error bars)

[2] = molecular target: T2, rPcCS (mitochondrial citrate synthase) (Phanerodontia chrysosporium, UniProt Q0EAA7); test: CS assay (DTNB method) and steady-state kinetic analysis; type: biochemical, Phanerochaete chrysosporium; conditions: at a concentration more than 10 times the inhibitory concentration of hemin (data not shown)
T2 sequence (Q0EAA7 1-446): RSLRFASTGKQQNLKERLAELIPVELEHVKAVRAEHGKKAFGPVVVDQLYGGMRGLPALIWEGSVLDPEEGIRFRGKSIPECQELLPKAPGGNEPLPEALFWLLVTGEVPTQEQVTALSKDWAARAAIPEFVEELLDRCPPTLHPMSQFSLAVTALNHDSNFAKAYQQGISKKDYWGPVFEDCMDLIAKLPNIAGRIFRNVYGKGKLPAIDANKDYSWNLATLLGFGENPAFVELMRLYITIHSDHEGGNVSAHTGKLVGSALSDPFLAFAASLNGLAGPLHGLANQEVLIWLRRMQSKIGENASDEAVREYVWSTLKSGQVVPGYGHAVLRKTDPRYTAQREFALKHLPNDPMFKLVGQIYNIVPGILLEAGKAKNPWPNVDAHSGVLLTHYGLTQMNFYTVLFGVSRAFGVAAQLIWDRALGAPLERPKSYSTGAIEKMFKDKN
Procedure: CS was assayed by the 5, 5′-dithiobis-2-nitrobenzoic acid (DTNB) method, as described previously (Srere et al. [1963]). […] CS catalyzes the reaction of OAA with AcCoA, generating citrate and CoA. Thus, reactions were monitored by the amount of released CoA, which was followed at 412 nm (ε 13 600 M^–1cm^–1) by the formation of 2-nitro-5-mercaptobenzoic acid, via the reaction of CoA with DTNB. Reactions were monitored for 1 min, and initial velocity was determined. […] Inhibition studies were carried out in the presence of 0–2.5 μM hemin as described above. Kinetic parameters were determined from Lineweaver–Burk plots, and Ki values were determined from the secondary plot of the slopes of the Lineweaver–Burk plots. Hemin and OAA solutions were prepared immediately prior to use.
Fig. 5 Inhibitory effect of hemin on PcCS reaction. […] Reaction mixtures contained 1.5 nM rPcCS, 40 mM Tris-HCl (pH 8.5), and 120 μM DTNB. Fixed substrate was added at 12 μM and variable substrate at 3–12 μM. […] Insets: secondary plots of each slope of Lineweaver–Burk plots against the concentration of hemin for determining inhibition constants.

CS from rat kidney = tested on: CS from rat kidney; design: method as in Matsuoka and Srere 1973; Lee et al. 1997; conditions: ref Matsuoka and Srere 1973; Lee et al. 1997; cited from earlier work
[3] = tested on: CS from Drosophila melanogaster; design: method as in Matsuoka and Srere 1973; Lee et al. 1997; conditions: ref Matsuoka and Srere 1973; Lee et al. 1997; cited from earlier work
[4] = substrate: CC(=O)SCCNC(=O)CCNC(=O)[C@H](O)C(C)(C)COP(=O)(O)OP(=O)(O)OC[C@H]1O[C@@H](n2cnc3c(N)ncnc32)[C@H](O)[C@@H]1OP(=O)(O)O; test: purified protein, by the assay type; conditions: other: rPcCS, substrate AcCoA; pH 8.5
[5] = substrate: O=C(O)CC(=O)C(=O)O; test: purified protein, by the assay type; conditions: other: rPcCS, substrate OAA; pH 8.5

Molecule: C=CC1=C(C)c2cc3[nH]c(cc4nc(cc5[nH]c(cc1n2)c(C)c5CCC(=O)O)C(CCC(=O)O)=C4C)c(C)c3C=C [protoporphyrin IX]
- inhibition of PcGAPDH activity [1]: as effectively as by hemin
- inhibition of PcCS [2]: slightly inhibited

Molecule: CCC(=O)SCCNC(=O)CCNC(=O)[C@H](O)C(C)(C)COP(=O)(O)OP(=O)(O)OC[C@H]1O[C@@H](n2cnc3c(N)ncnc32)[C@H](O)[C@@H]1OP(=O)(O)O [propionyl-CoA]
- mode of inhibition (CS from rat kidney): competitive inhibitors of AcCoA and as non-competitive inhibitors of OAA
- mode of inhibition [3]: competitive inhibitors of AcCoA and as non-competitive inhibitors of OAA

Molecule: CC(C)(COP(=O)(O)OP(=O)(O)OC[C@H]1O[C@@H](n2cnc3c(N)ncnc32)[C@H](O)[C@@H]1OP(=O)(O)O)[C@@H](O)C(=O)NCCC(=O)NCCS [CoA, coenzyme A]
- mode of inhibition (CS from rat kidney): competitive inhibitors of AcCoA and as non-competitive inhibitors of OAA
- mode of inhibition [3]: competitive inhibitors of AcCoA and as non-competitive inhibitors of OAA

B1: rPcCS (mitochondrial citrate synthase) (Phanerodontia chrysosporium) (protein)
chain: T2 sequence (Q0EAA7 1-446)
- Km [4]: 4.2 µM
- Vmax [4]: 25.8 nmol/min/mL
- Km [5]: 6.2 µM
- Vmax [5]: 31.4 nmol/min/mL
